Data published in article PMC4564450, “Oral and inhaled p38 MAPK inhibitors: effects on inhaled LPS challenge in healthy subjects” (European Journal of Clinical Pharmacology, 2015).

What was measured:
[1] = healthy subjects; ref previous phase 1 studies (unpublished); cited from earlier work
[2] = test system: IL-8 production from epithelial cells; set-up: method as in Pfizer, data on file; conditions: ref Pfizer, data on file; cited from earlier work
[3] = Plasma pharmacokinetics (sparse sampling); type: in vivo, human; conditions: for Plasma concentration: PF-03715455 20 mg inhaled; for concentration at 23 h / concentration at 30.5 h: human, plasma, po, 30 mg, PH-797804 30 mg oral; for concentration at 23 h: 23 h post dose; for concentration at 30.5 h: 30.5 h post dose
[4] = test system: IL-6, MPO, MCP-1 and MIP-1β in sputum supernatant; experiment: Inhaled LPS challenge: sputum supernatant protein biomarkers; type: in vivo, human; conditions: for Sputum IL-6, mean / Sputum MCP-1, mean / Sputum MIP-1β, mean / Sputum MPO, mean: post LPS
Method: A baseline sputum sample was obtained within 14 days of the first study period when subjects were administered a single dose of randomised treatment. […] Induced sputum was obtained 6 h later to coincide with the maximal inflammatory response caused by inhaled LPS. A washout period of at least 21 days followed, with subjects returning after 14 days of the washout period for induced sputum sampling; this was performed to ensure that the total cell count, total neutrophil count and total macrophage count were within the range of −80 to +100 % of the screening values. […] If these criteria were not met, then up to two repeat visits to obtain sputum were allowed, with at least 4 days between sputum inductions. The next randomised treatment day was scheduled at least 4 days after sputum induction and was identical to the first treatment day.
Sputum was induced using normal saline after inhalation of salbutamol, and processing was performed using dithiothreitol (DTT) as previously described [20]. The supernatants were stored at −80 °C for later analysis, while cells were used to produce cytoslides (Cytospin 4, Shandon, Runcorn, UK) for differential cell counting and immunocytochemistry. Cytoslides for differential cell count were fixed in methanol (Sigma) and then stained with Rapi-Diff® (GCC Diagnostics, Sandyhurst, UK) or Wright-modified Giemsa (Accustatin WG-18, Sigma-Aldrich); a minimum of 400 non-squamous cells were counted and differential cell counts obtained as percentage of total non-squamous cells. Cell viability was analysed by trypan blue exclusion. Cytoslides with % squamous cell counts <20 % were deemed to be of acceptable quality for differential cell counting. Unfixed cytoslides were wrapped in aluminium foil and stored frozen at −80 °C for immunocytochemistry.
In studies 1 and 2, sputum supernatants were analysed for interleukin 6 (IL-6), myeloperoxidase (MPO), monocyte chemotactic protein-1 (MCP-1) and macrophage inflammatory protein-1β (MIP-1 β), using electrochemiluminescent immunoassays (ECLIA) or enzyme-linked immunosorbent assays (ELISA); the manufacturers are listed in the online supplement. In study 3, sputum supernatants were analysed for IL-6, MCP-1 and MIP-1β by the same method.

[5] = test system: phospho-p38 expression in sputum macrophages; experiment: Immunocytochemistry of sputum macrophages: phospho-p38; type: in vivo, human; conditions: study 2; for mean percentage of macrophages expressing phospho-p38: PH-797804 30 mg oral or PF-03715455 20 mg inhaled, Post-LPS
Method: (§1) Frozen cytospins created from sputum cells were analysed for phosphorylated-Heat Shock Protein 27 (phospho-HSP27) and phospho-p38 expression in sputum macrophages. The methods are fully described in the online supplement. Phospho-p38 and phospho-HSP27 immunoreactivity is presented as percentage of the macrophage population. All analyses were carried out by blinded observers.
Frozen cytospins created from sputum cells were thawed and the cells were fixed in 4% paraformaldehyde in PBS for 10 minutes at room temperature, followed by blocking in normal serum. Cytospins were then incubated with the following primary antibodies overnight at 4 °C; anti-human phosphorylated-p38 (phospho-p38) MAPK (Thr180/Tyr182) antibody (Cat No. 9211S, New England Biolabs, Herts, UK) or phosphorylated-Heat Shock Protein 27 (phospho-HSP27 [Cat No. S82, New England Biolabs]) diluted 1:50 in 1.5% normal serum with 0.5% Triton X-100 (Sigma-Aldrich). Endogenous peroxidase was quenched by incubating cytospins in 3% H2O2 in methanol (0.3% for phospho-p38). Phospho-p38 and phospho-HSP27 were detected using biotinylated goat anti-rabbit IgG secondary antibody (Vector Labs, Peterborough, UK) in conjunction with an avidin–biotin peroxidase complex (Vector Labs) and 3,3’-diaminobenzidine (DAB) substrate. Cell nuclei were counterstained with Gill’s haematoxylin (Sigma-Aldrich). Omission of primary antibody in staining protocol was used as a negative control.
(§2) Digital micrographs were obtained through the use of a Nikon Eclipse 80i microscope (Nikon UK Ltd, Surrey, UK) equipped with a QImaging digital camera (Media cybernetics, Marlow, UK) and ImageProPlus 5.1 software (Media Cybernetics). Sputum macrophages (determined by morphology) were analysed for phospho-p38 and phospho-HSP27 expression following single label immunohistochemistry utilising the ImagePro Plus image analysis software; at least 200 macrophages per cytospin were counted. Phospho-p38 and phospho-HSP27 immunoreactivity was presented as percentage of the macrophage population. All analysis was carried out by blinded observers.

[6] = test system: phospho-HSP27 expression in sputum macrophages; experiment: Immunocytochemistry of sputum macrophages: phospho-HSP27; type: in vivo, human; conditions: study 2; PH-797804 30 mg oral or PF-03715455 20 mg inhaled; Post-LPS
Method: as §1
Frozen cytospins created from sputum cells were thawed and the cells were fixed in 4% paraformaldehyde in PBS for 10 minutes at room temperature, followed by blocking in normal serum. […] Phospho-p38 and phospho-HSP27 were detected using biotinylated goat anti-rabbit IgG secondary antibody (Vector Labs, Peterborough, UK) in conjunction with an avidin–biotin peroxidase complex (Vector Labs) and 3,3’-diaminobenzidine (DAB) substrate. […]
as §2, with “Phospho-p38 and phospho-HSP27 immunoreactivity was presented as percentage of the macrophage population. All analysis was carried out by blinded observers.” left out

[7] = test system: IL-6, MCP-1, MIP1β, CC16, fibrinogen and CRP levels in plasma; experiment: Inhaled LPS challenge: plasma protein biomarkers; type: in vivo, human; conditions: study 2; for Plasma CC16, mean / Plasma CRP, mean / Plasma Fibrinogen, mean / Plasma IL-6, mean / Plasma MCP-1, mean / Plasma MIP-1β, mean: PH-797804 30 mg oral or PF-03715455 20 mg inhaled, 6 hrs post LPS
Method: Blood samples were obtained in studies 2 and 3 to obtain plasma measurements of IL-6, MCP-1, MIP1β, CC16, fibrinogen and CRP levels; pre-dose and 6 h post-LPS samples were used for statistical analysis. This coincided with the timings of sputum measurements of inflammation biomarkers.
Systemic biomarkers were analysed using a similar mixed effects model; these models also adjusted for pre-dose baseline values, which were obtained 24 h prior to LPS challenge in study 2 and 30 min prior to LPS challenge in study 3.

[8] = test system: sputum neutrophils and macrophages after inhaled LPS; experiment: Inhaled LPS challenge in healthy subjects: induced sputum cell counts; type: in vivo, human; conditions: for attenuation of the modelled LPS response (sputum neutrophil percentage): PH-797804: studies 1 and 2, PF-03715455: study 2; for Mean (SD) sputum neutrophil percentage: 6 h post-LPS; for Macrophage Differential in sputum / Total Cell Count in sputum / Total Macrophage Count in sputum / Total Neutrophil Count in sputum: ANCOVA model mean; for Macrophage Differential in sputum, difference between the active treatment mean and the placebo mean: footnote: difference, not ratio
Method: Three randomised, double-blind, placebo-controlled crossover studies were performed; the effects of a single dose of active treatment was investigated in all three studies. […] Studies 2 and 3 were conducted at two UK centres: Quintiles Drug Research Unit, London, and Medicines Evaluation Unit, Manchester. […] The studies were performed during the following time periods: study 1, Sep 2006–Mar 2008; study 2, Jan 2011–Dec 2011; and study 3, Jul 2011–Jan 2012. The design of all three studies was similar. A baseline sputum sample was obtained within 14 days of the first study period when subjects were administered a single dose of randomised treatment. […] Induced sputum was obtained 6 h later to coincide with the maximal inflammatory response caused by inhaled LPS. […] This criterion was used to ensure that sputum cell counts after LPS challenge had returned to close to the original baseline values; this was done to reduce data variability between treatment periods. […] For each challenge, a 1-mg vial of lyophilised LPS (Escherichia coli serotype O26:B6, ref. L-2654, Sigma-Aldrich, Dorset, UK) was diluted with 4 mL of 0.9 % w/v sodium chloride. The reconstitution produced a 0.25 mg/mL solution, of which 2 mL was placed into the pre-calibrated dosimeter pot and administered via five inhalations from a breath-activated dosimeter (Mefar dosimeter MB3, Brescia, Italy). Each inhalation was performed over 3 s with a 6-s breath hold. […] Sputum was induced using normal saline after inhalation of salbutamol, and processing was performed using dithiothreitol (DTT) as previously described. The supernatants were stored at −80 °C for later analysis, while cells were used to produce cytoslides (Cytospin 4, Shandon, Runcorn, UK) for differential cell counting and immunocytochemistry. […] Cell viability was analysed by trypan blue exclusion. Cytoslides with % squamous cell counts <20 % were deemed to be of acceptable quality for differential cell counting. Unfixed cytoslides were wrapped in aluminium foil and stored frozen at −80 °C for immunocytochemistry. Sputum neutrophil percentage was the primary endpoint for all three studies. The neutrophil percentage was modelled using a mixed effects analysis of covariance (ANCOVA) model appropriate for a two-period, two-treatment or three-period, three-treatment crossover design. The fixed effects in the model were treatment and period. Subjects were modelled as a random effect. Additionally, the period-specific baseline was modelled as a covariate. This model was used for all sputum inflammatory markers, including the immunohistocytochemistry, where cell counts were log transformed before analyzing the data and percent differentials were not transformed. […] Ninety percent confidence intervals of the difference (non-transformed data) or the ratio (log-transformed data) were constructed based on the ANCOVA model.

[9] = study 2, PH-797804 30 mg oral or PF-03715455 20 mg inhaled
[10] = study 2, PH-797804 30 mg oral (p = 0.0001) or PF-03715455 20 mg inhaled (p = 0.031), single dose
[11] = study 2, PH-797804 30 mg oral or PF-03715455 20 mg inhaled, single dose
[12] = study 2, PH-797804 30 mg oral or PF-03715455 20 mg inhaled, post LPS
[13] = study 2, post LPS, listed as PF-03715445
[14] = study 1, PH-797804 30 mg oral, post LPS

| SMILES | time of maximum systemic concentration (tmax) [1] | IL-8 production from epithelial cells [2] | sputum supernatant IL-6, MPO, MCP-1 and MIP-1β levels compared to placebo [4, 9] | Sputum IL-6, mean [4, 9] | Sputum MCP-1, mean [4, 9] | Sputum MIP-1β, mean [4, 9] | Sputum MPO, mean [4, 9] | mean percentage of macrophages expressing phospho-p38 [5] | mean percentage of macrophages expressing phospho-HSP27 [6] | Plasma CC16, mean [7] | Plasma CRP, mean [7] | Plasma Fibrinogen, mean [7] | Plasma IL-6, mean [7] | Plasma MCP-1, mean [7] | Plasma MIP-1β, mean [7] | attenuation of the modelled LPS response (sputum neutrophil percentage) [8] | reduction in mean sputum neutrophil percentage post-LPS compared to placebo [8, 10] | Mean (SD) sputum neutrophil percentage [8, 11] | Macrophage Differential in sputum [8, 12] | Total Cell Count in sputum [8, 12] | also measured |
| --- | --- | --- | --- | --- | --- | --- | --- | --- | --- | --- | --- | --- | --- | --- | --- | --- | --- | --- | --- | --- | --- |
| CC(C)(C)c1cc(NC(=O)NCc2ccccc2Sc2ccc3nnc(-c4ccccc4SCCO)n3c2)n(-c2ccc(O)c(Cl)c2)n1 [PF-03715455] | ~30 min | significantly inhibit | no effects | 91.67 pg/mL | 115.38 pg/mL | 396.35 pg/mL | 937.04 ng/mL | 25.03% | 26.89% | 10.19 ng/mL | 475.90 ng/mL | 2340.40 µg/mL | 14.43 pg/mL | 340.30 pg/mL | 71.55 pg/mL | approximately 25% | 8.0% | 66.4 (14.0) % | 30.78% | 3.83e+06 g⁻¹ | Plasma concentration ([3]; study 2, 1.5 h post dose): 472.6 (116.4) pg/mL; Plasma concentration ([3]; study 2, 6.5 h post dose): 110.6 (29.7) pg/mL; attenuation of the baseline measurements (macrophages expressing phospho-P38 and phospho-HSP27) ([5]; PF-03715455 20 mg inhaled): 45–50%; plasma IL-6, MCP-1, MIP1β and CC16 compared to placebo ([7]; PF-03715455 20 mg inhaled, 6 h post-LPS challenge): statistically significant reductions; Total Macrophage Count in sputum [8, 12]: 1.09e+06 g⁻¹; Total Neutrophil Count in sputum [8, 12]: 2.43e+06 g⁻¹; Total Cell Count in sputum, Ratio of Means active/placebo ([8]; study 2, post LPS): 1.02; Total Macrophage Count in sputum, Ratio of Means active/placebo ([8]; study 2, post LPS): 1.62; Total Neutrophil Count in sputum, Ratio of Means active/placebo ([8]; study 2, post LPS): no effects; Macrophage Differential in sputum, difference between the active treatment mean and the placebo mean ([8]; study 2, post LPS): significantly attenuated; Macrophage Differential in sputum, difference between the active treatment mean and the placebo mean [8, 13]: 7.97%; Total Neutrophil Count in sputum, Ratio of Means active/placebo [8, 13]: 0.85 |
| CNC(=O)c1ccc(C)c(-n2c(C)cc(OCc3ccc(F)cc3F)c(Br)c2=O)c1 [PH-797804] | approximately 24 h | significantly inhibit | significantly reduced | 69.02 pg/mL | 133.41 pg/mL | 609.10 pg/mL | 485.28 ng/mL | 38.00% | 42.27% | 9.34 ng/mL | 462.10 ng/mL | 2172.70 µg/mL | 5.47 pg/mL | 261.50 pg/mL | 33.82 pg/mL | approximately 50% | 15.3% | 60.4 (17.9) % | 36.39% | 2.02e+06 g⁻¹ | concentration at 23 h ([3]; study 1): 38.9 ng/mL; concentration at 30.5 h ([3]; study 1): 37.8 ng/mL; concentration at 23 h ([3]; study 2): 56.8 ng/mL; concentration at 30.5 h ([3]; study 2): 49.2 ng/mL; Sputum IL-6, mean ([4]; study 1, PH-797804 30 mg oral): 29.66 pg/mL; Sputum MCP-1, mean ([4]; study 1, PH-797804 30 mg oral): 155.07 pg/mL; Sputum MIP-1β, mean ([4]; study 1, PH-797804 30 mg oral): 330.54 pg/mL; Sputum MPO, mean ([4]; study 1, PH-797804 30 mg oral): 669.06 ng/mL; sputum supernatant cytokine levels compared to placebo ([4]; study 1, PH-797804 30 mg oral, trends towards significance for MCP-1 and MPO): did not significantly inhibit; plasma IL-6, MIP1β, MCP-1, CC16 and CRP levels compared to placebo ([7]; PH-797804 30 mg oral, 6 h post-LPS challenge): statistically significant reductions; Mean (SD) sputum neutrophil percentage ([8]; study 1, PH-797804 30 mg oral single dose): 56.4 (24.0) %; reduction in mean sputum neutrophil percentage post-LPS compared to placebo ([8]; study 1, PH-797804 30 mg oral single dose, p = 0.0096): 15.1%; Total Macrophage Count in sputum [8, 14]: 470000 g⁻¹; Total Neutrophil Count in sputum [8, 14]: 660000 g⁻¹; Total Macrophage Count in sputum [8, 12]: 620000 g⁻¹; Total Neutrophil Count in sputum [8, 12]: 1.17e+06 g⁻¹ |
